# Laboratory results reported in US20240009173A1, “Use of 5-HT3-Targeting Drugs for Treatment of Acute Kidney Injury” (priority 2020, published 2024).
# Key:
# all ICU patients = conditions: literature and/or clinical trials; cited from earlier work
# [1] = test system: Fridericia-corrected QTc interval; conditions: 32 mg, 15 minute infusion, cited from earlier work
# ICU patients with AKI = conditions: literature and/or clinical trials; cited from earlier work
# Intestine of rats = conditions: cited from earlier work
# patients with AKI [2] = assay: Validation in eICU database: propensity score matching, chi-square test of ICU mortality (Example 4); type: in vivo, human
# [3] = test system: patients without AKI on admission or prior to receiving drug; assay: Anti-emetic usage and AKI risk in first ICU encounter: usage, max KDIGO category, binary logistic regression (Example 3); type: in vivo, human
# From the text: Study Population: The study population excludes patients with end-stage kidney disease and excludes patients with Acute Kidney Injury on admission or prior to receiving drug. […] Metoclopramide is primarily a dopamine D2 receptor antagonist anti-emetic. […] Prochlorperazine is primarily a dopamine receptor antagonist anti-emetic. […] This was a binary logistic regression with an outcome of experiencing any AKI within a first ICU encounter. The independent variable was use of anti-emetic prior to AKI (or before discharge if no AKI). […] The independent variable was use of anti-emetic prior to AKI (or before discharge if no AKI). […] The outcome was experiencing any AKI. The […] was the use of medication within the average time prior to AKI.
# patients with AKI [4] = conditions: human, in vivo
# patients with AKI [5] = test system: patients with AKI; set-up: species or system human; conditions: in vivo
# ICU patients = assay: Anti-emetic use and in-ICU death, logistic regression (Example 3); type: in vivo, human; conditions: outcome in-ICU death; use of medication within average time prior to AKI
# patients with AKI [6] = conditions: human, in vivo; remark: listed apart in the source
# [7] = 84 mg-kg in water by oral gavage 0.25d vs vehicle
# [8] = gene negatively correlated with eGFR in human AKI cohort
# [9] = rat intestine, 84 mg-kg oral gavage, 0.25d vs vehicle
# [10] = after matching, 3423 patients in group
# [11] = drug users, use before discharge/death or before AKI
compound,measurement,setting,value
Cc1nccn1CC1CCc2c(c3ccccc3n2C)C1=O (centres unmarked) [Ondansetron],Reported for protecting effect in all ICU patients,all ICU patients,N
same,maximum mean (upper limit of 90% CI) difference in QTcF from placebo after baseline-correction,[1]; at 20 minutes,19.6 (21.5) msec
same,period in which prolongation of QTcF was observed after start of infusion,[1],15 to 240 min
same,Reported for protecting effect in ICU patients with AKI,ICU patients with AKI,N
same,Genes (differentially expressed genes in bioset),Intestine of rats; [7],"1,815"
same,down-regulated genes,Intestine of rats; [7],722
same,up-regulated genes,Intestine of rats; [7],"1,093"
same,Gene expression fold change by Ondansetron treatment: AMACR,Intestine of rats; [8],−2.38
same,Gene expression fold change by Ondansetron treatment: CASP1,Intestine of rats; [8],−8.03
same,Gene expression fold change by Ondansetron treatment: CPD,Intestine of rats; [8],−2.4
same,Gene expression fold change by Ondansetron treatment: GBP2,Intestine of rats; [8],−4.71
same,Gene expression fold change by Ondansetron treatment: KPNA2,Intestine of rats; [8],1.68
same,Gene expression fold change by Ondansetron treatment: MCL1,Intestine of rats; [8],−3.07
same,Gene expression fold change by Ondansetron treatment: MET,Intestine of rats; [8],−2.32
same,Gene expression fold change by Ondansetron treatment: TFPI,Intestine of rats; [8],4.25
same,gene expression fold change: Axin2,Intestine of rats; [9],2.12
same,gene expression fold change: Birc2,Intestine of rats; [9],−2.85
same,gene expression fold change: Casp3,Intestine of rats; [9],−4.18
same,gene expression fold change: Cdc42,Intestine of rats; [9],−1.7
same,gene expression fold change: Cdkn2b,Intestine of rats; [9],−3.79
same,gene expression fold change: Crk,Intestine of rats; [9],−2.78
same,gene expression fold change: Ctbp2,Intestine of rats; [9],−10.3
same,gene expression fold change: Ctnna1,Intestine of rats; [9],−2.95
same,gene expression fold change: Ctnnb1,Intestine of rats; [9],−6.88
same,gene expression fold change: Cycs,Intestine of rats; [9],−2.08
same,gene expression fold change: Erbb2,Intestine of rats; [9],−2.24
same,gene expression fold change: Fn1,Intestine of rats; [9],−10.3
same,gene expression fold change: Gsk3b,Intestine of rats; [9],2.3
same,gene expression fold change: Hdac1,Intestine of rats; [9],1.52
same,gene expression fold change: Itgb1,Intestine of rats; [9],−3.18
same,gene expression fold change: Jak1,Intestine of rats; [9],−10.7
same,gene expression fold change: Kras,Intestine of rats; [9],−2.58
same,gene expression fold change: Lamb2,Intestine of rats; [9],−4.03
same,gene expression fold change: Mapk1,Intestine of rats; [9],−4.09
same,gene expression fold change: Mapk3,Intestine of rats; [9],−1.98
same,gene expression fold change: Mapk9,Intestine of rats; [9],−5.48
same,gene expression fold change: Mecom,Intestine of rats; [9],1.46
same,gene expression fold change: Met,Intestine of rats; [9],−2.32
same,gene expression fold change: Msh2,Intestine of rats; [9],−2.29
same,gene expression fold change: Mtor,Intestine of rats; [9],−1.75
same,gene expression fold change: Pdgfrb,Intestine of rats; [9],1.49
same,gene expression fold change: Pik3r1,Intestine of rats; [9],−3.77
same,gene expression fold change: Plcg2,Intestine of rats; [9],−1.63
same,gene expression fold change: Pld1,Intestine of rats; [9],−5.95
same,gene expression fold change: Prkcb,Intestine of rats; [9],−3.73
same,gene expression fold change: Pten,Intestine of rats; [9],−4.92
same,gene expression fold change: Raf1,Intestine of rats; [9],1.51
same,gene expression fold change: Rb1,Intestine of rats; [9],−9.02
same,gene expression fold change: Smo,Intestine of rats; [9],−2.45
same,gene expression fold change: Sos2,Intestine of rats; [9],2.47
same,gene expression fold change: Tgfa,Intestine of rats; [9],−3.86
same,gene expression fold change: Tgfb1,Intestine of rats; [9],−1.54
same,gene expression fold change: Tgfb3,Intestine of rats; [9],1.83
same,gene expression fold change: Tpr,Intestine of rats; [9],−1.93
same,Alive (patients),patients with AKI [2]; [10],2993
same,Death (patients),patients with AKI [2]; [10],430
same,ICU mortality,"patients with AKI [2]; after propensity score matching, 3,423 patients per group",12.56%
same,Number Need to Treat (NNT),"patients with AKI [2]; eICU patients, 95% confidence interval 23.61, 103.72",38.46
same,MAX KDIGO AKI Category 0 (%),[3]; [11],73.54%
same,"MAX KDIGO AKI Category 0, number of patients",[3]; [11],"32,447"
same,MAX KDIGO AKI Category 1 (%),[3]; [11],13.92%
same,"MAX KDIGO AKI Category 1, number of patients",[3]; [11],"6,143"
same,MAX KDIGO AKI Category 2 (%),[3]; [11],6.68%
same,"MAX KDIGO AKI Category 2, number of patients",[3]; [11],"2,946"
same,MAX KDIGO AKI Category 3 (%),[3]; [11],5.87%
same,"MAX KDIGO AKI Category 3, number of patients",[3]; [11],"2,588"
same,Odds Ratio,"[3]; outcome any AKI within first ICU encounter, use of anti-emetic prior to AKI (or before discharge if no AKI)",0.403
same,Odds Ratio,"[3]; outcome any AKI, use of medication within the average time prior to AKI",0.906
same,Odds Ratio,"[3]; outcome any AKI, use of medication within the average time prior to AKI, listed as ondansetron",protective
same,Death rate in MIMIC III database,patients with AKI [4],"140.91 per 1,000 patients"
same,average death rate,patients with AKI [4],14.1%
same,Coefficient,patients with AKI [5],−0.035
same,Odds Ratio,ICU patients,0.460
same,Death rate in eICU database,patients with AKI [6],"124.87 per 1,000 patients"
